Data reported in patent US7064120B2, “Tricyclic pyridyl carboxamides and derivatives thereof tocolytic oxytocin receptor antagonists” (Wyeth, priority 2001, dated 2006).

Target: T1, human oxytocin receptor (Homo sapiens, UniProt P30559)
T1 construct: host or cells: CHO cells, stably transfected (pcDNA3.1 vector)
T1 sequence (P30559 1-389): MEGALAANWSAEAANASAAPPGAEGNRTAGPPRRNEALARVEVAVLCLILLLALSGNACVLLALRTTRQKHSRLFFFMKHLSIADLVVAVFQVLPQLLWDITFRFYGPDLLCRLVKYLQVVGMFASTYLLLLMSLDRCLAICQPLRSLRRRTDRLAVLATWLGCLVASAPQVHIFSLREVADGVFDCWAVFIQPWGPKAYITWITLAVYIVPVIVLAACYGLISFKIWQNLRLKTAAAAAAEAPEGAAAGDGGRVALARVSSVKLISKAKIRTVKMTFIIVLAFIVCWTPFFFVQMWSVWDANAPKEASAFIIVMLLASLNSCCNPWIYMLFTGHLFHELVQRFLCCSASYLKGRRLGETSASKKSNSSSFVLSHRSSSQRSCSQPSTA
Assay: Oxytocin binding in CHO cell membranes expressing human oxytocin receptors ([3H]oxytocin radioligand binding)
Conditions: 100 nM, read-out: OT % inhibition @ 100 nM
How it was run: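 CHO membranes expressing human oxytocin receptor (25–50 μg protein/well) incubated 60 min at room temperature with [3H]oxytocin in Tris-HCl pH 7.4 buffer with MgCl2, BSA and protease inhibitors. Filtration and scintillation counting; reported as % inhibition at a stated concentration or nM IC50.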

| SMILES | inhibition at 0.1 µM [%] |
| --- | --- |
| COc1cccc(-c2ccc(C(=O)N3Cc4ccc(C(=O)NCc5ccccn5)n4Cc4ccccc43)cc2OC)c1 [Example 33, 10-[(2,3′-Dimethoxy-[1,1′-biphenyl]-4-yl)carbonyl]-N-(2-pyridinylmethyl)-10,11-dihydro-5H-pyrrolo[2,1-c][1,4]benzodiazepine-3-carboxamide] | 42 |
| COc1ccccc1-c1ccc(C(=O)N2Cc3ccc(C(=O)NCc4cccnc4)n3Cc3ccccc32)cc1C [Example 36, 10-[(2′-Methoxy-2-methyl-[1,1′-biphenyl]-4-yl)carbonyl]-N-(3-pyridinylmethyl)-10,11-dihydro-5H-pyrrolo[2,1-c][1,4]benzodiazepine-3-carboxamide] | 46 |
| COc1cc(C(=O)N2Cc3ccc(C(=O)N(C)Cc4cccnc4)n3Cc3ccccc32)ccc1-c1ccccc1C [Example 106, 10-[(2-Methoxy-2′-methyl-[1,1′-biphenyl]-4-yl)carbonyl]-N-methyl-N-(3-pyridinylmethyl)-10,11-dihydro-5H-pyrrolo[2,1-c][1,4]benzodiazepine-3-carboxamide] | 98 |
| COc1cc(-c2ccccc2C)c(Cl)cc1C(=O)N1Cc2ccc(C(=O)NCc3cccnc3)n2Cc2ccccc21 [Example 42, 10-[(6-Chloro-3-methoxy-2′-methyl-[1,1′-biphenyl]-4-yl)carbonyl]-N-(3-pyridinylmethyl)-10,11-dihydro-5H-pyrrolo[2,1-c][1,4]benzodiazepine-3-carboxamide] | 33 |
| COc1cc(C(=O)N2Cc3ccc(C(=O)NCc4cccnc4)n3Cc3ccccc32)ccc1-c1ccccc1C [Example 41, 10-[(2-Methoxy-2′-methyl-[1,1′-biphenyl]-4-yl)carbonyl]-N-(3-pyridinylmethyl)-10,11-dihydro-5H-pyrrolo[2,1-c][1,4]benzodiazepine-3-carboxamide] | 41 |
| COc1ccccc1-c1ccc(C(=O)N2Cc3ccc(C(=O)NCc4cccnc4)n3Cc3ccccc32)cc1OC [Example 45, 10-[(2,2′-Dimethoxy-[1,1′-biphenyl]-4-yl)carbonyl]-N-(3-pyridinylmethyl)-10,11-dihydro-5H-pyrrolo[2,1-c][1,4]benzodiazepine-3-carboxamide] | 37 |
| Cc1ccccc1-c1ccc(C(=O)N2Cc3ccc(C(=O)NCc4cccnc4)n3Cc3ccccc32)cc1 [Example 40, 10-[(2′-Methyl-[1,1′-biphenyl]-4-yl)carbonyl]-N-(3-pyridinylmethyl)-10,11-dihydro-5H-pyrrolo[2,1-c][1,4]benzodiazepine-3-carboxamide] | 17 |
| COc1cccc(-c2ccc(C(=O)N3Cc4ccc(C(=O)N5CCN(c6ccncc6)CC5)n4Cc4ccccc43)cc2C)c1 [Example 115, {10-[(3′-Methoxy-2-methyl-[1,1′-biphenyl]-4-yl)carbonyl]-10,11-dihydro-5H-pyrrolo[2,1-c][1,4]benzodiazepin-3-yl}[4-(4-pyridinyl)-1-piperazinyl]methanone] | 66 |
| COc1ccccc1-c1ccc(C(=O)N2Cc3ccc(C(=O)NCCc4ccccn4)n3Cc3ccccc32)cc1C [Example 49, 10-[(2′-Methoxy-2-methyl-[1,1′-biphenyl]-4-yl)carbonyl]-N-[2-(2-pyridinyl)ethyl]-10,11-dihydro-5H-pyrrolo[2,1-c][1,4]benzodiazepine-3-carboxamide] | 58 |
| COc1cccc(-c2cc(OC)c(C(=O)N3Cc4ccc(C(=O)NCc5cccnc5)n4Cc4ccccc43)cc2Cl)c1 [Example 43, 10-[(6-Chloro-3,3′-dimethoxy-[1,1′-biphenyl]-4-yl)carbonyl]-N-(3-pyridinylmethyl)-10,11-dihydro-5H-pyrrolo[2,1-c][1,4]benzodiazepine-3-carboxamide] | 18 |

More lines, now with the values ahead:

| inhibition at 0.1 µM [%] | SMILES |
| --- | --- |
| 61 | COc1ccccc1-c1ccc(C(=O)N2Cc3ccc(C(=O)N4CCN(c5ccncc5)CC4)n3Cc3ccccc32)cc1OC [Example 122, {10-[(2,2′-Dimethoxy-[1,1′-biphenyl]-4-yl)carbonyl]-10,11-dihydro-5H-pyrrolo[2,1-c][1,4]benzodiazepin-3-yl}[4-(4-pyridinyl)-1-piperazinyl]methanone] |
| 67 | COc1cccc(-c2cc(OC)c(C(=O)N3Cc4ccc(C(=O)N5CCN(c6ccncc6)CC5)n4Cc4ccccc43)cc2Cl)c1 [Example 120, {10-[(6-Chloro-3,3′-dimethoxy-[1,1′-biphenyl]-4-yl)carbonyl]-10,11-dihydro-5H-pyrrolo[2,1-c][1,4]benzodiazepin-3-yl}[4-(4-pyridinyl)-1-piperazinyl]methanone] |
| 0 | Cc1ccccc1-c1ccc(C(=O)N2Cc3ccc(C(=O)N(C)CCc4ccncc4)n3Cc3ccccc32)cc1 [Example 130, N-Methyl-10-[(2′-methyl-[1,1′-biphenyl]-4-yl)carbonyl]-N-[2-(4-pyridinyl)ethyl]-10,11-dihydro-5H-pyrrolo[2,1-c][1,4]benzodiazepine-3-carboxamide] |
| 88 | COc1cc(C(=O)N2Cc3ccc(C(=O)N(C)CCc4ccncc4)n3Cc3ccccc32)ccc1-c1cccc2ccccc12 [Example 134, 10-[3-Methoxy-4-(naphthalen-1-yl)benzoyl]-N-methyl-N-[2-(4-pyridinyl)ethyl]-10,11-dihydro-5H-pyrrolo[2,1-c][1,4]benzodiazepine-3-carboxamide] |
| 96 | COc1ccccc1-c1ccc(C(=O)N2Cc3ccc(C(=O)N4CCCCC4c4cccnc4)n3Cc3ccccc32)cc1OC (stereo not shown) [Example 141, {10-[(2,2′-Dimethoxy-[1,1′-biphenyl]-4-yl)carbonyl]-10,11-dihydro-5H-pyrrolo[2,1-c][1,4]benzodiazepin-3-yl}[2-(3-pyridinyl)-1-piperidinyl]methanone] |
| 98 | COc1ccccc1-c1ccc(C(=O)N2Cc3ccc(C(=O)N(C)CCc4ccncc4)n3Cc3ccccc32)cc1 [Example 129, 10-[(2′-Methoxy-[1,1′-biphenyl]-4-yl)carbonyl]-N-methyl-N-[2-(4-pyridinyl)ethyl]-10,11-dihydro-5H-pyrrolo[2,1-c][1,4]benzodiazepine-3-carboxamide] |
| 13 | Cc1ccccc1-c1ccc(C(=O)N2Cc3ccc(C(=O)N4CCN(c5ccncc5)CC4)n3Cc3ccccc32)cc1 [Example 117, {10-[(2′-Methyl-[1,1′-biphenyl]-4-yl)carbonyl]-10,11-dihydro-5H-pyrrolo[2,1-c][1,4]benzodiazepin-3-yl}[4-(4-pyridinyl)-1-piperazinyl]methanone] |
| 88 | COc1cccc(-c2ccc(C(=O)N3Cc4ccc(C(=O)N(C)CCc5ccncc5)n4Cc4ccccc43)cc2C)c1 [Example 128, 10-[(3′-Methoxy-2-methyl-[1,1′-biphenyl]-4-yl)carbonyl]-N-methyl-N-[2-(4-pyridinyl)ethyl]-10,11-dihydro-5H-pyrrolo[2,1-c][1,4]benzodiazepine-3-carboxamide] |
| 93 | COc1ccccc1-c1ccc(C(=O)N2Cc3ccc(C(=O)N(C)CCc4ccncc4)n3Cc3ccccc32)cc1C [Example 126, 10-[(2′-Methoxy-2-methyl-[1,1′-biphenyl]-4-yl)carbonyl]-N-methyl-N-[2-(4-pyridinyl)ethyl]-10,11-dihydro-5H-pyrrolo[2,1-c][1,4]benzodiazepine-3-carboxamide] |
